Target: T1, STK16 (PKL12) (Homo sapiens, UniProt O75716)
T1 construct: purchased Thermo Fisher Scientific (Life Technologies) SelectScreen
Assay: SelectScreen LanthaScreen
Type: binding
Details: read-out: % displacement
Outline: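 Percent values come from Thermo SelectScreen profiling of NU5455, combining activity and binding assays. CSF1R was run in Z'LYTE format at Km app ATP, and CAMK1 in Adapta format with ATP listed at 10.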

T1 sequence (O75716 whole entry): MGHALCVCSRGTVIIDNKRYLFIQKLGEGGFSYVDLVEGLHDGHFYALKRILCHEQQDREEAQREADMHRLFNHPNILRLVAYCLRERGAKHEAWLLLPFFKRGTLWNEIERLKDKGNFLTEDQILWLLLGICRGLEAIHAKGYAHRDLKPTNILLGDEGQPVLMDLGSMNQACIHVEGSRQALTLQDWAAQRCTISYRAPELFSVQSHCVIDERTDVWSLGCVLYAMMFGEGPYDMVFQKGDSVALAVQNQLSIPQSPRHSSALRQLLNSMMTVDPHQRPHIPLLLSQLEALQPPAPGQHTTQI

CN(C(=O)CN1CCOCC1)c1ccc2sc3c(-c4cccc5c(=O)cc(N6CC7CCC(C6)O7)oc45)cccc3c2c1 [NU5455]
inhibition at 1 µM: 10.5%
